pIC50: −log10 of the molar value.
How the values were obtained:
[1] = biological target: glycolate oxidase (GOX) in HepaRG-CAR cells (Homo sapiens (Human), UniProt Q9UJM8); assay: HepaRG-CAR cell-based assay for quantitation of glycolate oxidase inhibition (cellular glycolate flux, GC-MS)
[2] = biological target: recombinant full-length human hydroxyacid oxidase 1 (HAO1), the equivalents of hGOX (Homo sapiens (Human), UniProt Q9UJM8); assay: In-vitro human glycolate oxidase (hGOX) assay (Amplex red fluorescence); format: biochemical; settings: 6 nM recombinant human GO, 85 μM glycolate, 10 min preincubation
Chain of recombinant full-length human hydroxyacid oxidase 1 (HAO1), the equivalents of hGOX (Q9UJM8 whole entry): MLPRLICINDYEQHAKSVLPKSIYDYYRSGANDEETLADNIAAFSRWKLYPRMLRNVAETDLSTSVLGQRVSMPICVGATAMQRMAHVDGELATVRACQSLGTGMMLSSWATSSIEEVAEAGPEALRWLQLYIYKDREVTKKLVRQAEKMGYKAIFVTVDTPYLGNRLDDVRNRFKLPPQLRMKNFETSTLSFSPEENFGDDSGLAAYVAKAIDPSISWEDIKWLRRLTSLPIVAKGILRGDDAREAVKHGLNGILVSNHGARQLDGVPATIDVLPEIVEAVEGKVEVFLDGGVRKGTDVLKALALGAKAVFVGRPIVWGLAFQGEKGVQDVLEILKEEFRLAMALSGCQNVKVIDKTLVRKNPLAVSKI
Procedure, shortened: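 Activity was read as Amplex Red fluorescence (560/590 nm), with 50 μM reagent added after a 10 min room-temperature incubation. The enzyme, full-length human HAO1, was in pH 7.4 HEPES buffer containing KCl, NaCl, MgCl2 and 0.01% Triton X-100.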

[3] = system: alanine-glyoxylate aminotransferase (AGXT) knockout mice; assay: In vivo efficacy in Agxt−/− mouse model of primary hyperoxaluria 1 (urine oxalate and glycolate)
Experimental: The in-vivo activity of test compounds was evaluated using alanine-glyoxylate aminotransferase (AGXT) knockout mice from Jackson Laboratory (Bar Harbor, Me.), as reported by Martin-Higueras et al., Molecular Therapy, vol. 24 no. 4, 719-725, 2016. Ten to 15-week-old male AGXT knock-out mice (Agxt−/−) were used to assess the in-vivo activity of test compounds on urinary oxalate and glycolate.
Male Agxt−/− mice were housed under standard conditions (five animals per cage) and allowed free access to food and water. Upon study initiation, animals were treated with test compounds by oral gavage formulated in 20% (2-hydroxypropyl)-β-cyclodextrin (10 μL/g). […]
Urine oxalate was measured using a commercially available clinical oxalate oxidase assay (Trinity Biotech, Wicklow, Ireland) following the manufacturer's instructions.
Plasma and urine glycolate were determined by methods described in Dutta et al., “Inhibition of Glycolate Oxidase with Dicer-substrate siRNA Reduces Calcium Oxalate Deposition in a Mouse Model of Primary Hyperoxaluria Type 1.” Mol Ther., 24(4) 770-778 (2016) using liquid chromatography combined with mass spectrometry detection (LC/MS) on a triple-quadrupole instrument by electrospray ionization and multiple reaction monitoring. […] A two-step protein precipitation determined plasma glycolate. […]

[4] = In-vivo pharmacokinetic evaluation (exposure, AUC fold-over Example 1); settings: male CD-1 mice, 10 mg/kg oral gavage in 20% (2-Hydroxypropyl)-β-cyclodextrin, plasma at 0.5, 2 and 6 hours post-dose; AUC expressed as fold-over Example 1
Experimental: In-vivo exposure of test compounds was determined in 5-6 week old male CD-1 mice. Mice (n=2/compound) received 10 mg/kg of each compound formulated in 20% (2-Hydroxypropyl)-β-cyclodextrin (10 μL/g) by oral gavage. At 0.5 hours, 2 hours, and 6 hours post-dose, blood samples were collected from the submandibular vein using EDTA as an anticoagulant and stored on ice. Plasma samples were obtained by centrifugation at 4° C. and were analyzed immediately or stored at −20° C. until analysis. Compounds were extracted from mouse plasma with acetonitrile and quantified by LC-MS-MS in the negative ion mode using a standard curve.

[5] = Alternate liver microsome metabolic stability assay; format: in vitro ADME, human, monkey, dog, rat, mouse; settings: liver microsomes, 1 μM, at 30 minutes, all species tested
Experimental: Metabolic Stability. For evaluating the metabolic stability in liver microsomal preparations, two buffers were prepared. Buffer A consisted of 10 mM NADPH and 0.5 mg/mL microsomes in 100 mM of phosphate buffer. Buffer B consisted of 0.5 mg/mL microsomes in 100 mM of phosphate buffer. The reference compound (verapamil) and test compound were prepared as 100 μM DMSO stocks. The source of liver microsomes was as follows: Human (BD Gentest, #452117), monkey (RILD, #LM-SXH-02M), dog (BD, #452601), Rat (BioIVT, #M00001), and mouse (BioIVT, #M00501).
The reaction was started by adding 2.5 μL of 100 μM control compound or test compound solutions to 216.25 μL of prewarmed (37° C.) assay buffer. The final concentration of the control compound and test compounds were 1 μM. […] The reaction was stopped by adding 5 volumes of cold acetonitrile with internal standards (100 nM alprazolam, 200 nM caffeine, and 100 nM tolbutamide). Samples were centrifuged at 3,220 g for 30 minutes. An aliquot of 100 μL of the supernatant was mixed with 100 μL of ultra-pure water and then used for LC-MS/MS analysis.

[6] = Alternate plasma stability assay; format: in vitro ADME, human, dog, mouse; settings: 5 μM
Experimental: Plasma stability. Stock compounds were prepared for testing the stability in human (BioIVT, #BRH1589665), dog (BioIVT, #BGL102122) and mouse (BioIVT, #MSE37887) plasma. 1 mM test compound working solution was prepared in DMSO. A one mM propantheline working solution was prepared in acetonitrile. Propantheline was used as a positive control for human, dog, and mouse plasma in this assay.
Plasma (398 μL) for each compound was added into an incubation plate, and the plate was pre-warmed for 15 minutes at 37° C. The reaction was initiated upon addition of 2 μL of 1 mM working solution (test compounds or control compound) to the plasma to reach a final concentration of 5 μM. The reaction was incubated at 37° C. Aliquots of 50 μL were taken from the reaction samples at 0 and 60 minutes. Adding 450 μL cold acetonitrile containing internal standards stopped the reaction. Once the reaction was stopped, the samples were vortexed for 10 minutes, followed by centrifugation at 3,220 g for 40 minutes to precipitate proteins. The supernatant (100 μL) was transferred to a new plate and diluted with ultrapure water according to the LC-MS signal response and peak shape. Samples were analyzed by LC-MS/MS.

[7] = system: Caco-2 cell monolayers; assay: Alternate Caco-2 permeability assay; format: in vitro ADME; settings: alternate Caco-2 assay, 10 μM, 2 hours
Experimental: A working solution for the Caco-2 permeability assay was prepared by diluting test compound stock solutions (2 mM in DMSO) with HBSS (10 mM, pH 7.4) to 10 μM working solution. Metoprolol, erythromycin, and cimetidine were used as the control compounds.
To determine the rate of drug transport in the apical-to-basolateral direction (A-B), 125 μL of the working solution was added to the Transwell insert (apical compartment). 50 μL of each sample was immediately transferred from the apical compartment to 200 μL of acetonitrile containing internal standards (100 nM alprazolam, 200 nM caffeine, and 100 nM tolbutamide) in a new 96-well plate as the initial donor sample (A-B). Samples were vortexed at 1000 rpm for 10 minutes, and the wells in the receiver plate (basolateral compartment) were subsequently filled with 235 μL of transport buffer. Plates were incubated at 37° C. for 2 hours.
To determine the rate of drug transport in the basolateral-to-apical direction (B-A), 285 μL of the working solution was added to the receiver plate wells (basolateral compartment). 50 μL of each sample was transferred immediately from the basolateral compartment to 200 μL of acetonitrile containing internal standards (100 nM alprazolam, 200 nM Caffeine, and 100 nM tolbutamide) in a new 96-well plate as the initial donor sample (B-A). Samples were vortexed at 1000 rpm for 10 minutes, and 75 μL of transport buffer was added to the Transwell insert (apical compartment). Plates were incubated at 37° C. for 2 hours. […]
To determine the Lucifer Yellow leakage after 2 hour transport period, the stock solution of Lucifer yellow was prepared in DMSO and diluted with HBSS (10 mM HEPES, pH 7.4) to reach the final concentration of 100 μM. […] The Lucifer Yellow fluorescence (to monitor monolayer integrity) signal was measured in a fluorescence plate reader at 480 nm excitation and 530 nm emission.

Chain of glycolate oxidase (GOX) in HepaRG-CAR cells (Q9UJM8 whole entry): as above

SMILES | pIC50 [2] | AUC Fold over Ex. 1 [4] | compound remained intact [5] | plasma stability half-life (compared with Example 1) [6] | Papp Efflux Ratio [7] | pIC50 [1] | inhibition of urine oxalate ([3]; compound 1 dosed at 10 and 30 mg/kg, vs vehicle-treated control) | urine glycolate change ([3]; compound 1 dosed twice daily at 10 and 30 mg/kg)
C#Cc1cccc(Oc2[nH]nnc2C(=O)O)c1 [Example 1, 5-(3-Ethynylphenoxy)-1H-1,2,3-triazole-4-carboxylic Acid] | 7.68 | 1.0 | – | – | – | 5.60 | about 30% | concomitant increase in urine glycolate
O=C(O)c1nn[nH]c1Oc1cccc(C#CCC2CC2)c1 [Example 302, 5-(3-(3-Cyclopropylprop-1-ynyl)phenoxy)-1H-1,2,3-triazole-4-carboxylic Acid] | 7.89 | 4.1 | 100% | similarly long or longer half-lives | single digits | – | – | –
CC(C)CC#Cc1cccc(Oc2[nH]nnc2C(=O)O)c1 [Example 343, 5-(3-(4-Methylpent-1-ynyl)phenoxy)-1H-1,2,3-triazole-4-carboxylic Acid] | 8.00 | 4.3 | 100% | similarly long or longer half-lives | single digits | – | – | –

The next compounds have a higher pIC50 [2] than those just listed; values first:

pIC50 [2] | AUC Fold over Ex. 1 [4] | compound remained intact [5] | plasma stability half-life (compared with Example 1) [6] | Papp Efflux Ratio [7] | SMILES | pIC50 [1] | inhibition of urine oxalate ([3]; compound 1 dosed at 10 and 30 mg/kg, vs vehicle-treated control) | urine glycolate change ([3]; compound 1 dosed twice daily at 10 and 30 mg/kg)
8.10 | 0.1 | 100% | similarly long or longer half-lives | – | CS(=O)(=O)c1ccc(C#Cc2cccc(Oc3[nH]nnc3C(=O)O)c2)cc1 [Example 255, 5-(3-(2-(4-(Methylsulfonyl)phenyl)ethynyl)phenoxy)-1H-1,2,3-triazole-4-carboxylic Acid] | – | – | –
8.22 | 7.4 | – | – | single digits | O=C(O)c1nn[nH]c1Sc1cccc(C#CCC2CC2)c1 [Example 356, 5-(3-(3-Cyclopropylprop-1-ynyl)phenylthio)-1H-1,2,3-triazole-4-carboxylic Acid] | – | – | –

Reference: patent US11504367B2, “Compounds and methods for treating oxalate-related diseases” (OxaluRx, Inc., priority 2019, dated 2022)
